Data reported in patent US8658383B2, “Sweet taste receptor-expressing construct, cell body expressing the same, and utilization thereof” (T. Hasegawa Co., Ltd., priority 2009, dated 2014).
Residues, ends and D or L forms follow the SMILES beside them.

Key:
hT1R3 = target: T1, hT1R3 (Homo sapiens, UniProt Q7RTX0); assay: Fluorescent microscope calcium imaging (Fura-2 AM) of comparison cultured cell strain (D) expressing hT1R3 and hG16gust44 only; format: cell-based; settings: Aspartame final concentration 10 mM, FIG. 11
T1 construct: The sweet taste receptor subunits T1R2 and T1R3 include an entire part of each subunit
T1 sequence (Q7RTX0 21-852): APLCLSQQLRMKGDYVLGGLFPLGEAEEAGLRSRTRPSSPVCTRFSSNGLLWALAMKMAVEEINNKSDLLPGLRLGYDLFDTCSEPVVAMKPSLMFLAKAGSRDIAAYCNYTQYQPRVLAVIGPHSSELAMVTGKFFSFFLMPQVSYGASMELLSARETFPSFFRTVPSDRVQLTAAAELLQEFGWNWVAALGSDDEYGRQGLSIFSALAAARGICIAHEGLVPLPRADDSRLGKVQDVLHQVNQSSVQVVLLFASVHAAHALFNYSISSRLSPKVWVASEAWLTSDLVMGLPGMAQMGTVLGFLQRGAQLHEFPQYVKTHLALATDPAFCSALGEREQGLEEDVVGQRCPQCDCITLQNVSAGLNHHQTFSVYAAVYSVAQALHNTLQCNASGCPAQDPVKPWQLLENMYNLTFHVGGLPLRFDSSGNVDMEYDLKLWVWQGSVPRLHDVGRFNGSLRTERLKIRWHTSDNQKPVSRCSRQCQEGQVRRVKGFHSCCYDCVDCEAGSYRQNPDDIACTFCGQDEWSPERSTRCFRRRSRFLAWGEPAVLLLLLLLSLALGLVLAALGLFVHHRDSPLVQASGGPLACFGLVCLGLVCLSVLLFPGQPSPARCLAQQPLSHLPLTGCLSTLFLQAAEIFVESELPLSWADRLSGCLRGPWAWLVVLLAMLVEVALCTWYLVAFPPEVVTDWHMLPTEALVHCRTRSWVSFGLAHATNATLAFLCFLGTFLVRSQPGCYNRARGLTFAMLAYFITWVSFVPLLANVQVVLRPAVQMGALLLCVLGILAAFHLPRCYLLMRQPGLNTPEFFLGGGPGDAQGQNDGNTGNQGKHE
Protocol: Each of the cultured cell strains (A) to (C) prepared in Example 4 was loaded with a fluorescent calcium indicator Fura-2 AM, and cells were prepared to take them in. Cells loaded with Fura-2 AM were excited at 340 nm and 380 nm, and a fluorescent image observed at 510 nm was taken using a fluorescent microscope and a CCD camera. While the image was taken, Aspartame at a final concentration of 10 mM was administered to cells and, thereafter, the image was continuously taken. From the field of the taken image, 100 cells were randomly selected, and the response cell number was counted.
As comparison, using an expression construct consisting of pcDNA5/FRT having a sequence in which a cDNA encoding hT1R3 and a cDNA encoding hG16gust44 are connected downstream of a CMV promoter, so that an IRES sequence is flanked by those cDNAs (FIG. 10), a cultured cell strain (D) was prepared similarly as in Example 4, and the response cell number was subjected to counting as described above.

[1] = target: T2, human sweet taste receptor (hT1R2+hT1R3) (Homo sapiens, UniProt Q7RTX0+Q8TE23); assay: Fluorescent microscope calcium imaging (Fura-2 AM) of cultured cell strains (A) to (C); settings: for cell response (response cell number of 100 randomly selected cells): Aspartame final concentration 10 mM, FIG. 11
T2 sequence (Q8TE23 20-839): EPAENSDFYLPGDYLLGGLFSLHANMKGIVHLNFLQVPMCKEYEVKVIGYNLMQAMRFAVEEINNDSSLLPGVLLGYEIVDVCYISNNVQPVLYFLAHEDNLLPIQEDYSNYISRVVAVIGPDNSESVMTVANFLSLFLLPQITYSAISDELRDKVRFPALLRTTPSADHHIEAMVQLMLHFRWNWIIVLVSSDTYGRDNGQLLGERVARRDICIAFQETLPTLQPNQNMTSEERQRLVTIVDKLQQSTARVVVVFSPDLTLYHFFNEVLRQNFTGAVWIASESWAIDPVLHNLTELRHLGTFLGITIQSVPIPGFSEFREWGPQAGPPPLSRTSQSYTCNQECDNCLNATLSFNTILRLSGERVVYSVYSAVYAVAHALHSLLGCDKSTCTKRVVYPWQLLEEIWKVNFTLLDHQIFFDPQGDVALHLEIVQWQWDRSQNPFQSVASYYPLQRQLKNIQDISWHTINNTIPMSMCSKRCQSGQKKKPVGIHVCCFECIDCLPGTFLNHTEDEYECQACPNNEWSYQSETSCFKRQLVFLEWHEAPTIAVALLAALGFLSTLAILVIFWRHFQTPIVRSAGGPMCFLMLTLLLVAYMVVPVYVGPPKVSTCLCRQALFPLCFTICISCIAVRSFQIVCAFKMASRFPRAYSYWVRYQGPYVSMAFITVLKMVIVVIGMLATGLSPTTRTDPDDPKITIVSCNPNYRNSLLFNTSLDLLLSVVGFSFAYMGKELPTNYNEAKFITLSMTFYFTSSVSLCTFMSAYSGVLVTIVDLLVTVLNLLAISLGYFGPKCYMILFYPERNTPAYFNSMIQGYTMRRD
T2 sequence (Q7RTX0 21-852): T1 sequence (Q7RTX0 21-852)
Protocol: Fluorescent calcium imaging using a fluorescent microscope can be performed according to the following procedure.
First, cells are suspended in a low glucose (1,000 mg/ml) DMEM medium, from which hygromycin B has been removed, and each 40 to 80 thousands cells are seeded on each well of a 96-well plate (Greiner, Lumox).
Then, after cultured at 37° C. for 24 to 48 hours, a medium is removed and is replaced with a suitable amount of a HEPES buffer, and a HEPES buffer containing a fluorescent calcium indicator (Fura-2 AM) is further added.
After incubated at 27 to 37° C. for 30 to 60 minutes, an extracellular fluorescent indicator is removed, and this is finally replaced with a suitable amount of a HEPES buffer, and is allowed to stand at room temperature for 10 to 20 minutes. By adding thereto a sweet taste substance at a particular concentration or a solution of a sweet taste substance and a substance to be tested, taste stimulation is performed at room temperature. In the fluorescent indicator Fura-2 (excitation wavelength: 340 nm/380 nm, fluorescent wavelength: 510 nm), a fluorescent intensity of excitation at 340 nm is increased, and a fluorescent intensity of excitation at 380 nm is reduced, when a calcium ion concentration is increased.
Cells loaded with Fura-2 AM were excited at 340 nm and 380 nm, and a fluorescent image observed at 510 nm was taken using a fluorescent microscope and a CCD camera. While the image was taken, Aspartame at each final concentration of 0.1 mM, 0.5 mM, 1 mM, 2 mM and 5 mM was administered to cells and then the image was continuously taken.
Cells loaded with Fura-2 AM were excited at 340 nm and 380 nm, and a fluorescent image observed at 510 nm was taken by using a fluorescent microscope and a CCD camera. While the image was taken, Sucrose at each final concentration of 20 mM, 50 mM, 100 mM, 200 mM, 500 mM and 1 M was administered to cells and then the image was continuously taken.
Cells loaded with Fura-2 AM were excited at 340 nm and 380 nm, and a fluorescent image observed at 510 nm was taken by using a fluorescent microscope and a CCD camera. While the image was taken, sucrose at final concentration of 500 mM was administered to cells and then the image was continuously taken.

[2] = target: T2, human sweet taste receptor (hT1R2+hT1R3); assay: Automated fluorescent calcium imaging (Fluo-4 AM, FlexStation 3) of cultured cell strain (A); format: cell-based; set-up: The sweet taste receptor subunits T1R2 and T1R3 include an entire part of each subunit; settings: Average ± S.E., n = 2

cell response (response cell number of 100 randomly selected cells) (hT1R3): cell response was not observed
cell response (response cell number of 100 randomly selected cells) ([1]; cultured cell strain (A)): very strong cell response was observed
cell response (response cell number of 100 randomly selected cells) ([1]; cultured cell strain (B), compared with strain (A)): weaker cell response was observed
cell response (response cell number of 100 randomly selected cells) ([1]; cultured cell strain (C), compared with strain (A)): weaker cell response was observed
Change amount of fluorescent intensity (ΔF) ([2]; aspartame 0.08 mM): 4.8 ± 0.1
Change amount of fluorescent intensity (ΔF) ([2]; aspartame 5 mM): 31.1 ± 2.4
SMILES: COC(=O)[C@H](Cc1ccccc1)NC(=O)[C@@H](N)CC(=O)O [aspartame] (H-Asp-Phe-OMe)
sweet taste response (fluorescent images) ([1]; cultured cell strain (A), Aspartame in a range of 0.1 mM to 5 mM, FIG. 12): concentration-dependent sweet taste response was observed
